Source: patent US20140200137A1, “TREATMENT OF STORED TUBERS WITH COMPOSITIONS OF ALKYL NAPHTHALENES AND HIGHER ALCOHOLS” (1,4 Group, Inc., priority 2013, published 2014)

Tests used:
[1] = system: existing sprouts on post-dormant potatoes with peeps and sprouts extant; assay: Comparison of sprout suppressing chemicals applied by thermofogging (Example VII); type: in vivo; conditions: for Burn “old”: effect upon old sprouts, up to nine months old; for Burn “old” / Burn “new”: thermofogging at comparable dosages; for Burn “new”: newly emerged sprouts and peeps, generally less than a month
Text: Various sprout suppressing chemicals were compared for their ability to suppress existing sprouts on post-dormant potatoes with peeps and sprouts extant.
In the above table “Burn old” refers to the effect upon old sprouts, which included sprouts up to nine months old, these being generally more difficult to desiccate, while “burn new” refers to newly emerged sprouts and peeps, generally less than a month or so in existence.

[2] = system: peeps and sprouts of stored potatoes; assay: General observations on treatment of stored potatoes with higher alcohols and 1,4-DMN; type: in vivo; conditions: 24 hours after treatment all peeps and sprouts are burned
Text: Higher alcohols, such as 1-octanol and 1-nonanol, are miscible with 1,4-DMN.
It has been observed that the dormancy-like effect produced upon stored potatoes by 1,4-DMN remains, at least to some degree, even as the residue of 1,4-DMN becomes undetectable. Thus, by proper timing of the last treatment of stored potatoes with 1,4-DMN and a subsequent treatment with 1-octanol, 1-nonanol or 1-hexanol, alcohols which are on the GRAS list, both the washed potatoes and any discharged wash water will have no harmful chemicals present. The action of higher alcohols, such as 1-octanol, 1-nonanol and 1-hexanol, on peeps and sprouts is rapid, so that 24 hours after treatment all peeps and sprouts are “burned.”

potatoes [3] = conditions: in vivo; cited from earlier work
sprouts on potatoes = assay: Mixtures of 1,4-DMN with octanol at various volumetric ratios, burn of sprouts (Example VIII); type: in vivo; design: key: +++: Excellent effect; ++: Very good effect; +: Good effect; —: Negligible effect; conditions: total dosage of each mixture constant
Text: All mixtures provided a more rapid burn of sprouts compared with an equal dosage of octanol or 1,4-DMN alone. The 7:1 ratio of octanol to DMN gave the best results in terms of length of non-sprouting condition before nascent sprouts again appeared.

[4] = system: potatoes with sprouts averaging in excess of about 2 cm, some up to 8 cm or more; assay: Thermofogging on potatoes with very long sprouts (Examples III and IV); type: in vivo; conditions: for kill of large sprouts: full strength
Procedure: In another test, the potatoes were treated with 1-nonanol at the same fogging temperature and dosage for the same period of time to achieve the same application dosage as in Example II. The potatoes in this storage had sprouts averaging in excess of about 2 cm in length. In this experiment, potatoes with very long sprouts, some up to 8 cm or more, were treated 1, 2, and 4 times sequentially with full strength nonanol. This “spray-paint” method was used to try to bring the total amount (rate) of nonanol up to a level capable of killing large sprouts as well as peeps . . . a necessity in commercial settings where sprouts of all sizes exist. […] While this was a small scale test, a whole storage full of potatoes in this condition would likely lead to secondary decays.
The results of Example III led to another experiment where nonanol and DMN were applied.

[5] = system: stored potatoes with white peeps showing from the eyes; assay: Thermofogging of 1-nonanol on bulk stored potatoes with white peeps (Example II); type: in vivo; conditions: thermofogged at about 500° F., 8 ml for 2 kg of potatoes
Procedure: Stored potatoes in bulk storage were treated with 1-nonanol (n-nonyl alcohol) via a thermofogger to determine sprout inhibition. The thermofogger was operated at an aerosol chamber temperature of about 500° F. A good stable aerosol was produced. The alcohol was applied at a dosage of 8 ml for 2 kg of potatoes. The system was open so that the actual dosage reaching the potatoes was considerably less than the fogged amount. In a first bulk storage, the potatoes had white “peeps” showing from the eyes.

peeps and sprouts = assay: Fogging of 1-nonanol compared with clove oil in burning peeps and sprouts (Example V); type: in vivo, potatoes; conditions: similar dosages
potatoes [6] = assay: Thermofogging of 1-octanol on cold and warmer potatoes, damage to skin and flesh (Example IX); type: in vivo
Procedure: The 1-octanol was applied via an electrically […] thermofogger at a fog temperature within the fogger of about 500° F. to obtain a stable aerosol. The potatoes were examined about 24 hours after treatment. […] The potatoes were cut open at the dark spots. Damage to the flesh of the potatoes existed to a depth of about 5 mm to 25 mm. Potato flesh was otherwise undamaged except under the dark spots.

SMILES	Burn “old” [1]	Burn “new” [1]	results among alcohols tested by Burton (potatoes [3])	also measured
CCCCCCO [Hexanol, 1-hexanol]	+	++		action on peeps and sprouts [2]: rapid
CCCCCCCCCCO [1-Decanol]	++	++		
CCCCCOC(C)=O [AmylAcetate, amyl acetate]		++		
CCCCC(CC)CO (centres unmarked) [2-ethyl-hexan-1-01]			Worst results	
CCCCCCCCCCCCO [Dodecanol]	−\+	−		
CCCCCCCCO [1:0, octanol]				Length of Burn (sprouts on potatoes): +++; Rapid Burn (sprouts on potatoes): ++
CCCCCCO [n-hexyl, n-hexyl alcohol]			Worst results	
CCCCCO [amyl, amyl alcohol]			Best results	
CCCCCCCCCO [1-Nonanol, 1-nonanol]	+++	+++		desiccation of existing peeps and sprouts, ranking in the test ([1]; in vivo): most effectively desiccated existing peeps and sprouts; action on peeps and sprouts [2]: rapid; negative side effect observed ([4]; four sequential applications): wet, slimy, sprout rot; kill of large sprouts ([4]; four sequential applications): completely killed; kill of large sprouts ([4]; single or double applications): didn't reach a level of nonanol high enough to completely kill these sized sprouts; damage to potato flesh adjacent the eyes [5]: without any damage to potato flesh; effect on white peeps ([5]; open system): burned to a dark color and were inactivated; effectiveness in burning peeps and sprouts relative to clove oil (peeps and sprouts): about four times as effective as clove oil
CCCCCCCCCO [nonyl, nonyl alcohol]			Best results	
Cc1ccc(C)c2ccccc12 [1,4-DMN, 1,4 dimethyl naphthalene]	+	+		
CCCCCCCCO [1-Octanol, 1-octanol]	++	+++		action on peeps and sprouts [2]: rapid; depth of damage to the flesh under the dark spots (potatoes [6]; potato, in vivo, 24 h): 5-25 mm; damage to potato skin (potatoes [6]; potatoes at about 36° F., fog about 500° F., examined about 24 hours after treatment): large dark damaged spots; injury to potato skin or flesh (potatoes [6]; potatoes held at 53° F., similar dosage, fogging temperature and rate): did not show injury to the potato skin or to its flesh
